Reference: patent US20260234125A1, “CYCLIC AMINE DERIVATIVE, AND COMPOSITION AND USE THEREOF” (SHANGHAI JINGXIN BIOMEDICAL CO., LTD., priority 2023, published 2026)

Target: T1, human Apo(a) protein (Homo sapiens, UniProt P08519)
T1 construct: biotin (biotinylated)
Test: BLI affinity of compounds to Apo(a)
Assay type: binding
Conditions: biotinylated apolipoprotein(a) on SA sensor, compound 100 nM
Description: • 1. Experimental purpose: The purpose of this test is to test the affinity of the compounds of the present disclosure to Apo(a) • 2. Experimental instruments and reagents: • Molecular interaction analyzer (ForteBio Octet red 96e), • SA sensor (ForteBio), • 96-well plates were purchased from Greine, • 3. Experimental methods:
Prepared two 96-well plates, one as a sample plate and another as a pre-wett plate, curing buffer was added to a 200 μL well of the pre-wet plate, and the SA sensor was pre-wetted for at least ten minutes. All reagents and samples were added to another black sample plate, after the sample addition was completed, the sensor plate and the sample plate were placed into the ForteBio Octet red 96e instrument. The program was set up in sequence for detection. The experimental temperature was set to 30° C. and the acquisition frequency was set at 5.0 Hz. The biosensor was run in 1×PBS, pH7.4, 0.02% Tween-20, 0.1% BSA in the first column for 60 seconds, which was the baseline step. Biotinylated apolipoprotein(a) was diluted to 40 μg/ml with 1×PBS, pH7.4, 0.02% Tween-20, 0.1% BSA, and added to the second column, where it was run for a period of time until the amount of curing on the sensor reaches 2.0 nm. The biosensor was run in 1×PBS, pH7.4, 0.02% Tween-20, 0.1% BSA in the third column for 60 seconds, which was the baseline step. The compound was diluted to 100 nM with 1×PBS, pH7.4, 0.02% Tween-20, 0.1% BSA, and added to the fourth column, where the sensor was run for 60 seconds. The sensor was run in 1×PBS, pH7.4, 0.02% Tween-20, 0.1% BSA in the third column for 120 seconds, during this process, the compound dissociated from the sensor. The affinity constant KD reflects the size of the interaction binding ability. When the concentration of the analyte is at KD, the equilibrium signal Req is half of Rmax.

T1 sequence (P08519 20-2040): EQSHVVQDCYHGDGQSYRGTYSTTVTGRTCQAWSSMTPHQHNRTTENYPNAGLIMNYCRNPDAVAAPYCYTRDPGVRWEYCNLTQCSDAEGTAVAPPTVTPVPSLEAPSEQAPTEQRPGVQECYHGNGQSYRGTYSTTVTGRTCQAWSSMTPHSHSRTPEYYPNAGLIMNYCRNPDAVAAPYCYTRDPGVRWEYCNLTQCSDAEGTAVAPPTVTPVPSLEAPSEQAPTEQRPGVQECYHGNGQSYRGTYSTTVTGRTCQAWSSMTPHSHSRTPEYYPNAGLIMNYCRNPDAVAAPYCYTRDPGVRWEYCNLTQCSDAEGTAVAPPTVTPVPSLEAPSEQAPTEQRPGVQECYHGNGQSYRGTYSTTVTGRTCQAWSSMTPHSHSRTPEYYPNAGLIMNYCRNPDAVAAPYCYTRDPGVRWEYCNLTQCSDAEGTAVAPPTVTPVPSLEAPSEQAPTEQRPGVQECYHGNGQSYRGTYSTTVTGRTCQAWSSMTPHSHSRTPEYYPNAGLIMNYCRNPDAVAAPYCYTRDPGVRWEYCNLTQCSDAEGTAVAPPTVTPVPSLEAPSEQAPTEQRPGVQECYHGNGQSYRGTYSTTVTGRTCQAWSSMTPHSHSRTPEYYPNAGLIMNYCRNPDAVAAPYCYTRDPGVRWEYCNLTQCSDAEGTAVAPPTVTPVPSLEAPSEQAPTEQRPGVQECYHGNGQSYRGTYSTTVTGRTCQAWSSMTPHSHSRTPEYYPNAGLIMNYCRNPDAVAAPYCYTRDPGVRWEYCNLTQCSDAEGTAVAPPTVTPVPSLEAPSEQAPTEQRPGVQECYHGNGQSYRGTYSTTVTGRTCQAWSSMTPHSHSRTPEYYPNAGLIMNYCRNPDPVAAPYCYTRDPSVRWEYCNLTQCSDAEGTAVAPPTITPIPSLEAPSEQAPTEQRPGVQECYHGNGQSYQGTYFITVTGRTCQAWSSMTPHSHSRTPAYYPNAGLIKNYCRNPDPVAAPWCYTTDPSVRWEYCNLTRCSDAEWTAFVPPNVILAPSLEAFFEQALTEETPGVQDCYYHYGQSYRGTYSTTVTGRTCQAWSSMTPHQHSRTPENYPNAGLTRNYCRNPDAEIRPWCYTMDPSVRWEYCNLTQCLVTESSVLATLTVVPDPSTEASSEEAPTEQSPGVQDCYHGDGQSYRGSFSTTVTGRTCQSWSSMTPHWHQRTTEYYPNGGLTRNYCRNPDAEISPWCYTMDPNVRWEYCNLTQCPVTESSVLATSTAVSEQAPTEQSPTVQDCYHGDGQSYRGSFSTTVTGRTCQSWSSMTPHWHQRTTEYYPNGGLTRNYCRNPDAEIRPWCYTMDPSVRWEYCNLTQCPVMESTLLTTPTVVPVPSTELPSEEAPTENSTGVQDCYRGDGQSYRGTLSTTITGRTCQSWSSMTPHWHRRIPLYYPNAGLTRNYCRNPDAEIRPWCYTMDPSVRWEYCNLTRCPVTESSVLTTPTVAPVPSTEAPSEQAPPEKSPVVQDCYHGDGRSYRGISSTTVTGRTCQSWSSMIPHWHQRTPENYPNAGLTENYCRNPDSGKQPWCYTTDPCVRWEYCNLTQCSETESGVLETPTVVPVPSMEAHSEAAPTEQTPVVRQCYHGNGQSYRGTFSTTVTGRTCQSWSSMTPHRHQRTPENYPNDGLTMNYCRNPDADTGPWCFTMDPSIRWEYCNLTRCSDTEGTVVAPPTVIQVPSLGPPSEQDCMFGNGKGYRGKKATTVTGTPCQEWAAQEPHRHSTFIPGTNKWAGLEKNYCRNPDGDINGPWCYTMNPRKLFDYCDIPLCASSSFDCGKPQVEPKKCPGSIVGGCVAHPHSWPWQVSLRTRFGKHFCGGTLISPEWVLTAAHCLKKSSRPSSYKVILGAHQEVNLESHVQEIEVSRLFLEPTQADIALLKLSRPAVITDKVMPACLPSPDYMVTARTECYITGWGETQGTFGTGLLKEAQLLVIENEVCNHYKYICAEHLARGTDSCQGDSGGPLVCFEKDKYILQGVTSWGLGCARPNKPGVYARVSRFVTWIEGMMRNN

| SMILES | Kd |
| --- | --- |
| O=C(O)[C@@H](Cc1cccc(Oc2nc(Oc3cccc(C[C@H](C(=O)O)[C@H]4CCNC4)c3)nc(Oc3cccc(C[C@H](C(=O)O)[C@H]4CCNC4)c3)n2)c1)[C@H]1CCNC1 [Example 7] | 0.00806 µM |
| O=C(O)[C@@H](Cc1cccc(CN(Cc2cccc(C[C@H](C(=O)O)[C@H]3CCNC3)c2)Cc2cccc(C[C@H](C(=O)O)[C@H]3CCNC3)c2)c1)C1CNC1 [Example 11] | 0.0142 µM |
| O=C(O)[C@@H](Cc1cccc(COC2CC(OCc3cccc(C[C@H](C(=O)O)[C@H]4CCNC4)c3)CC(OCc3cccc(C[C@H](C(=O)O)[C@H]4CCNC4)c3)C2)c1)[C@H]1CCNC1 (some centres unmarked) [Example 6] | 0.0199 µM |

Results, then the molecule that gave them:

| Kd | SMILES |
| --- | --- |
| 0.0253 µM | O=C(O)[C@@H](Cc1cccc(OCc2cc(COc3cccc(C[C@H](C(=O)O)[C@H]4CCNC4)c3)cc(COc3cccc(C[C@H](C(=O)O)[C@H]4CCNC4)c3)c2)c1)[C@H]1CCNC1 [Example 10] |
| 0.0187 µM | O=C(NCCN(CCNC(=O)c1cccc(C[C@H](C(=O)O)[C@H]2CCNC2)c1)CCNC(=O)c1cccc(C[C@H](C(=O)O)[C@H]2CCNC2)c1)c1cccc(C[C@H](C(=O)O)[C@H]2CCNC2)c1 [Example 8] |
